Experimental data published in patent US20240368154A1 (GENOSCO Inc., priority 2023, published 2024).

Legend:
[1] = target: T1, Recombinant ROCK1 (amino acids 1-477) (Homo sapiens, UniProt Q13464); assay: ROCK inhibition assay, LANCE Ultra TR-FRET kinase assay; assay type: biochemical; conditions: at Km of ATP (table title); method: 1 mM ATP, 50 nM ULight-CREBtide substrate, 1 hour, room temperature
T1 construct: Recombinant ROCK1 (amino acids 1-477)
Experimental: (§1) Kinase IC50 was determined through an in vitro assay based on LANCE Ultra TR-FRET (Time-Resolved Fluorescence Resonance Energy Transfer) homogeneous technologies method (Perkin Elmer). Recombinant ROCK1 (amino acids 1-477) and ROCK2 (amino acids 5-554) proteins were purchased from Carna Biosciences and SignalChem. Compound activities were measured by Envision and IC50s were calculated. The assays were performed in white LUMITRAC™ 200 96 well half-area microplates from Greiner Bio-One. The kinase reaction buffer consisted of 50 mM HEPES pH 7.5, 1 mM EGTA, 10 mM MgCl2, 2 mM DTT and 0.01% Tween-20. Kinases were incubated with 50 nM (ULight-CREBtide) substrate in the presence of 1 mM (ROCK1) or 1 mM (ROCK2) of ATP. The kinase reaction was carried out for 1 hour before addition of a stopping buffer to a final of 10 mM EDTA and 0.6 nM of LANCE Ultra Europium anti-phospho-CREB (Ser133) antibody (PerkinElmer TRF0200) in LANCE detection buffer. All assay incubations were performed at room temperature, and the microplates were sealed with polyester film during that time. The reaction was incubated for 1 hour, and the signal was read in Envision in TR-FRET mode (excitation at 320 nm and emission at 615/665 nm).
(§2) As used herein, a way to describe potency of inhibitory activity (nM) is a value of inhibitory activity at 50% (IC50).

[2] = target: T2, Recombinant ROCK2 (amino acids 5-554) (Homo sapiens, UniProt O75116); assay: as above; assay type: biochemical; conditions: at Km of ATP (table title); method: 1 mM ATP, 50 nM ULight-CREBtide substrate, 1 hour, room temperature
T2 construct: ROCK2 (amino acids 5-554)
T2 sequence (O75116 5-554): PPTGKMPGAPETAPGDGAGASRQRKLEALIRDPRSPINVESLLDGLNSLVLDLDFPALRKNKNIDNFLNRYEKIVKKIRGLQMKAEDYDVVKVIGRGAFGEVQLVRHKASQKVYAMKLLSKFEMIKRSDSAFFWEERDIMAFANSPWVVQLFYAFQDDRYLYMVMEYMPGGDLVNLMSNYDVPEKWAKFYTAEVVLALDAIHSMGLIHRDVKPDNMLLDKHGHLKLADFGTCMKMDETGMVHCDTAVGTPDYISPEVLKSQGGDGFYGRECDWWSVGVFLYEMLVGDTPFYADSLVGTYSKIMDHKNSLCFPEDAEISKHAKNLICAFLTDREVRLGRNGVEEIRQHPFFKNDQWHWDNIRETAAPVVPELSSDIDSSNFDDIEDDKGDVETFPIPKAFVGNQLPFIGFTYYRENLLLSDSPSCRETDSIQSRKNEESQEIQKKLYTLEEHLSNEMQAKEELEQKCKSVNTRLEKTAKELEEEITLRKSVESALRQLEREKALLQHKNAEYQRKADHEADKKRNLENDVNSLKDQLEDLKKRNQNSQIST
Experimental: as §1, §2

T1 sequence (Q13464 1-477): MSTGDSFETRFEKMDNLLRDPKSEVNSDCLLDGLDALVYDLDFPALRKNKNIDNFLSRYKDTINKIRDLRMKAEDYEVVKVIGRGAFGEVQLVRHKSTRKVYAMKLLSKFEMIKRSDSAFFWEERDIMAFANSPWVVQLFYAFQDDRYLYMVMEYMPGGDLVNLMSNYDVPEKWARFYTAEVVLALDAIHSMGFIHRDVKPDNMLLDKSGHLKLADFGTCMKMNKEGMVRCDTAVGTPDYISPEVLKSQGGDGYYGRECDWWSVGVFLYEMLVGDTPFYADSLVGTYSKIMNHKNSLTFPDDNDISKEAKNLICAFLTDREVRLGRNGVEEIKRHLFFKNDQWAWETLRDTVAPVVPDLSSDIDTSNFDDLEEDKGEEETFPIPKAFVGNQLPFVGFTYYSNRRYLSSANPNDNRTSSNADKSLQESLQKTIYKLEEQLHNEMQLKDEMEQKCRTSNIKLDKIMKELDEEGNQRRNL

Row | SMILES | IC50 [1] [nM] | IC50 [2] [nM]
1 | COc1n[nH]cc1-c1ccc2c(C(=O)[C@H]3COc4ccc(F)cc4C3)cn(CCO)c2c1 (single isomer, unassigned) [Compound 2-22] | > 501 | 51 to 500
2 | CC(C)(O)Cn1cc(C(=O)C2COc3ccc(Cl)cc3C2)c2cnc(-c3cn[nH]c3F)nc21 (stereo not shown) [Compound 1-54] | 11 to 50 | < 10
3 | O=C(c1cn(CCO)c2cc(-c3cn[nH]c3)ccc12)C1COc2ccc(F)cc2O1 (stereo not shown) [Compound 2-9] | 11 to 50 | < 10
4 | O=C(c1cn(CCO)c2cc(-c3c[nH]nc3Cl)ccc12)C1COc2ccccc2O1 (stereo not shown) [Compound 2-4] | < 10 | < 10
5 | CC[C@H](O)Cn1cc(C(=O)C2COc3ccc(Cl)cc3C2)c2cnc(-c3cn[nH]c3Cl)cc21 (stereo partly shown) [Compound 1-35] | 51 to 500 | 11 to 50
6 | COc1n[nH]cc1-c1ccc2c(C(=O)C3COc4ccc(Cl)cc4C3)nn(CC(C)O)c2c1 (stereo not shown) [Compound 2-33] | 51 to 500 | 11 to 50
7 | C[C@H](O)Cn1cc(C(=O)C2COc3ccc(Cl)cc3C2)c2cnc(-c3cn[nH]c3Cl)nc21 (stereo partly shown) [Compound 1-45] | 11 to 50 | < 10
8 | C[C@@H](O)Cn1cc(C(=O)C2COc3ccc(Cl)cc3C2)c2cnc(-c3cn[nH]c3F)nc21 (stereo partly shown) [Compound 1-47] | 11 to 50 | < 10
9 | COc1ccc2c(c1)CC(C(=O)c1cn(CC(C)(C)O)c3cc(-c4cn[nH]c4Cl)ncc13)CO2 (stereo not shown) [Compound 1-29] | < 10 | < 10
10 | C[C@H](O)Cn1cc(C(=O)C2COc3ccc(F)cc3C2)c2cnc(-c3c[nH]nc3Cl)cc21 (stereo partly shown) [Compound 1-20] | < 10 | < 10
11 | COc1ccc2c(c1)CC(C(=O)c1cn(CCO)c3cc(-c4c[nH]nc4Cl)ncc13)CO2 (stereo not shown) [Compound 1-23] | < 10 | < 10
12 | COc1n[nH]cc1-c1ccc2c(C(=O)C3Cc4ccccc4O3)nn(CCO)c2c1 (stereo not shown) [Compound 2-30] | 51 to 500 | 51 to 500
13 | O=C(c1cn(CCO)c2cc(-c3cn[nH]c3)ccc12)C1COc2ccc(F)cc2C1 (stereo not shown) [Compound 2-7] | < 10 | < 10
14 | O=C(c1nn(CCO)c2cc(-c3cn[nH]c3)ccc12)C1COc2ccccc2C1 (stereo not shown) [Compound 3-2] | 11 to 50 | < 10
15 | COc1ccc2c(c1)CC(C(=O)c1cn(C[C@H](C)O)c3cc(-c4cn[nH]c4Cl)ncc13)CO2 (stereo partly shown) [Compound 1-27] | < 10 | < 10
16 | O=C(c1cn(CCO)c2cc(-c3cn[nH]c3)ccc12)C1COc2cc(F)ccc2O1 (stereo not shown) [Compound 2-11] | 51 to 500 | < 10
17 | O=C(c1nn(CCO)c2cc(-c3cn[nH]c3)ccc12)C1COc2ccc(F)cc2O1 (stereo not shown) [Compound 3-3] | 11 to 50 | < 10
18 | COc1ccc2c(c1)CC(C(=O)c1cn(CCO)c3cc(-c4cn[nH]c4F)ncc13)CO2 (stereo not shown) [Compound 1-24] | < 10 | < 10
19 | O=C(c1cn(CCO)c2cc(-c3cn[nH]c3)ccc12)C1COc2ccc(Cl)cc2C1 (stereo not shown) [Compound 2-2, (6-Chlorochroman-3-yl)-[1-(2-hydroxyethyl)-6-(1H-pyrazol-4-yl)indol-3-yl]methanone] | < 10 | < 10
20 | O=C(c1nn(CCO)c2cc(-c3c[nH]nc3C(F)(F)F)ccc12)C1COc2ccc(F)cc2C1 (stereo not shown) [Compound 2-26] | 51 to 500 | 51 to 500
21 | C[C@H](O)Cn1cc(C(=O)[C@@H]2COc3ccc(Cl)cc3C2)c2cnc(-c3cn[nH]c3F)cc21 [Compound 1-30] | 11 to 50 | < 10
22 | C[C@@H](O)Cn1cc(C(=O)[C@@H]2COc3ccc(F)cc3C2)c2cnc(-c3cn[nH]c3F)nc21 [Compound 1-50] | < 10 | < 10
23 | CC(C)c1n[nH]cc1-c1ccc2c(C(=O)C3COc4ccc(F)cc4C3)nn(CCO)c2c1 (stereo not shown) [Compound 2-28] | > 501 | > 501
